Results: patent US11524000B2, “Targeting Mcl-1 to enhance DNA replication stress sensitivity for cancer therapy” (Emory University, priority 2017, dated 2022)

Tests used:
[1] = tested on: RPA2 foci in WT MEF cells; assay: RPA2 foci immunostaining in WT MEF cells (DNA end resection); type: cell-based
Method: (§1) HR repair is initiated by DSB end resection that is mediated by the Mre11 complex, whereas Ku tightly bound to DNA ends blocks Mre11 DNA resection. As Mcl-1 negatively regulates Ku function via direct binding, Mcl-1 may reverse the Ku-mediated inhibitory effect on Mre11 complex-mediated DNA end resection. Mre11-Rad50 complex-mediated exonuclease activity was analyzed in the presence of increasing concentrations of Mcl-1 protein using 5′-32P-end-labeled fork DNA as a substrate. […] Ku heterodimer inhibited MR-mediated DNA resection (FIG. 2A, lane 3 vs. lane 2), which was gradually reversed by the addition of increasing concentrations of purified Mcl-1 protein in the presence of a constant amount of Ku protein (FIG. 2A, lane 3 vs. lanes 4-7). BSA was used as control and had no effect on DNA resection. […] In addition, RPA2 is an established reporter of DNA end resection during HR repair in cells. To further test the effect of Mcl-1 on DNA resection in cells, RPA2 foci formation following treatment with Hu, camptothecin (CPT), or IR was compared in WT and Mcl1−/− MEFs. […] RPA2 phosphorylation at Ser4 and Ser8 was analyzed by Western blot using the S4/S8 dual-site phosphospecific RPA2 antibody following exposure of MEF WT or MEF Mcl1−/− cells to IR, CPT, and Hu. […]

[2] = tested on: RPA2 phosphorylation at Ser4 and Ser8; assay: RPA2 Ser4/Ser8 phosphorylation by Western blot in MEF cells; type: cell-based
Method: as §1

Mcl-1/Ku complex = molecular target: T1, Mcl-1/Ku complex (Homo sapiens, UniProt Q07820); assay: Co-IP of Mcl-1/Ku interaction in H1299 cells; type: cell-based; settings: for Mcl-1/Ku interaction: time course 0, 0.5, 1, 2, 8, or 24 hours
T1 construct: endogenous in cells; host or cells: H1299
Method: (§2) To test whether replication stress affects the Mcl-1/Ku interaction, time course experiments were carried out. H1299 cells were treated with Hu or olaparib for various times (0, 0.5, 1, 2, 8, or 24 hours). The Mcl-1/Ku interaction and cell cycle were analyzed simultaneously at each time point. […] These findings indicate that, in addition to S/G2 cell cycle phase, Hu- or olaparib-induced DNA replication stress can also promote Mcl-1/Ku interaction.
(§3) To assess whether Mcl-1 is essential for the effect of MI-223 on HR activity, Mcl-1 was knocked out from H1299 cells using CRISPR/Cas9 to generate Mcl-1-deficient cells. WT Mcl-1, Ku binding-deficient mutant ΔBH1, and empty vector control were exogenously expressed in Mcl-1-knockout H1299 (Mcl1−/− H1299) cells, followed by treatment with MI-223 for 24 hours and analysis of HR efficacy. […] Intriguingly, expression of exogenous WT Mcl-1 but not the Ku binding-deficient ΔBH1 Mcl-1 mutant in Mcl-1-deficient H1299 cells restored the inhibitory effect of MI-223 on HR activity.

[3] = tested on: Rad51 foci in H1299 cells; assay: Rad51 foci immunostaining in H1299 cells; type: cell-based; settings: for induction of Rad51 foci: single agent
Method: Rad51 foci were quantified by counting of at least 100 cells from each sample.
(§4) To test whether inhibition of HR by MI-223 sensitizes cancer cells to DNA replication stress, H1299 cells were treated with olaparib or Hu in the absence or presence of MI-223, followed by analysis of Rad51 foci and clonogenic survival. […] Importantly, MI-223 suppression of HR DNA repair activity synergizes with olaparib or Hu to kill H1299 lung cancer cells (FIG. 4H).

H1299 cells [4] = assay: Cell cycle analysis of H1299 cells during replication stress time course; type: cell-based
Method: as §2

[5] = tested on: H1299 lung cancer xenografts; assay: H1299 lung cancer xenograft tumor growth in nude mice; type: in vivo; settings: for repression of lung cancer in vivo (tumor volume): single agent, 0, 20, 40, 80 and 120 mg/kg/day for 30 days; for suppression of lung tumor growth: vs single agent
Method: Nu/Nu nude mice with H1299 lung cancer xenografts were treated with increasing doses of MI-223 (0, 20, 40, 80 and 120 mg/kg/day) for 30 days (n=8 mice per group). Tumor volume was measured once every 2 days. After 30 days, the mice were sacrificed, and the tumors were removed and analyzed. […]

WT Mcl-1 protein = WT Mcl-1 protein (Homo sapiens, UniProt Q07820); assay: Isothermal titration calorimetry (ITC), MI-223/Mcl-1 binding; settings: 1-site binding mode, read-out: binding constant (KD)
Method: (§5) The binding constant (KD) value was determined by fitting of the titration curve to a 1-site binding mode
(§6) To confirm the binding of MI-223 with Mcl-1, isothermal titration calorimetry (ITC) was used to measure MI-223/Mcl-1 binding. ITC is a direct, label- and immobilization-free technique that measures the binding affinity between proteins and small-molecule ligands that interact with each other, and can analyze binding constant (KD) values in the millimolar and nanomolar range. ITC experiments were performed to assess MI-223/Mcl-1 binding using an auto-iTC200 instrument. […] In addition to the binding constant (KD) value measured by ITC, we also used fluorescence polarization (FP) to measure the inhibitory constant (KI) value using a fluorescence-labeled PUMA BH3 peptide. The PUMA BH3 peptide was chose for this FP assay to evaluate Mcl-1/MI-223 binding because it has been reported to bind specifically to the […] of Mcl-1. […] Based on findings from both ITC (i.e., KD) and FP (i.e., KI), we conclude that MI-223 may directly bind to Mcl-1 with good affinity.

[6] = molecular target: T2, BH1 deletion Mcl-1 mutant protein (ΔBH1) (Homo sapiens, UniProt Q07820, DEL256-265); assay: Isothermal titration calorimetry (ITC), BH1 deletion mutant; type: binding; settings: ITC assay
T2 construct: made in house
Method: as §5, §6

Mcl-1 = Mcl-1 (Homo sapiens, UniProt Q07820); assay: Fluorescence polarization (FP) assay with fluorescence-labeled PUMA BH3 peptide; settings: read-out: inhibitory constant (KI) of MI-223/Mcl-1 binding
Method: as §6

[7] = tested on: HR activity in H1299 DR-GFP cells; assay: HR repair efficiency in H1299 DR-GFP cells; type: cell-based
[8] = tested on: HR activity in U2OS DR-GFP cells; assay: HR repair efficiency in U2OS DR-GFP cells; type: cell-based; settings: dose-dependent
[9] = tested on: HR efficacy in Mcl-1-deficient H1299 cells; assay: HR efficacy in Mcl-1-knockout H1299 cells; type: cell-based; settings: 24 hours
Method: as §3

H1299 lung cancer cells = assay: Colony formation assay (clonogenic survival) in H1299 cells; type: cell-based
Method: as §4

H1299 cells [10] = assay: Annexin V binding assay; type: cell-based
[11] = tested on: H1299 lung cancer xenografts; assay: IHC staining of Ki-67 and γ-H2AX in xenograft tumor tissues; type: in vivo, mice
[12] = Toxicity evaluation in treated xenograft mice (weight, blood chemistry, blood counts, histopathology); type: in vivo
[13] = MI-223 in combination with Hu, compared with Hu alone
[14] = MI-223 in combination with olaparib, compared with olaparib alone
[15] = mice treated with MI-223 alone or in combination with olaparib or Hu

T1 sequence (Q07820 whole entry, one chain of several): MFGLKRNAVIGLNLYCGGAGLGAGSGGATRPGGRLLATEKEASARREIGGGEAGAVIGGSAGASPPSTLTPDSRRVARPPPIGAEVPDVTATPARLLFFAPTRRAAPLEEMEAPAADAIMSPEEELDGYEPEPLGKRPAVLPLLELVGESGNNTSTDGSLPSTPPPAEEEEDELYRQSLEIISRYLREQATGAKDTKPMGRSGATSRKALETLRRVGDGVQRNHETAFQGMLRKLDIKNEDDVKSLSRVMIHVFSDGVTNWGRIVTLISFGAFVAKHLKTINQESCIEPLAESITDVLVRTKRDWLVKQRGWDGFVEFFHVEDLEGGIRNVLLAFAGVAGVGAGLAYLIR
T2 sequence (Q07820 with tags, fused parts or gaps DEL256-265): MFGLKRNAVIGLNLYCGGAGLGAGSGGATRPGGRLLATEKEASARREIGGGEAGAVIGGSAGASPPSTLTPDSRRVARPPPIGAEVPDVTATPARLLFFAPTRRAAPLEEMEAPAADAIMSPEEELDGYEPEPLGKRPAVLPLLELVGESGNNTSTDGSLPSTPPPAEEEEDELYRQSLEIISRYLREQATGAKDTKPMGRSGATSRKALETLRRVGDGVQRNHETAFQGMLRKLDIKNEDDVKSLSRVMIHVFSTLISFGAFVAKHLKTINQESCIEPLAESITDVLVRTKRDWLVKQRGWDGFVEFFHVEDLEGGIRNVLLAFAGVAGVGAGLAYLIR
WT Mcl-1 protein, sequence (Q07820 whole entry): as the sequence (Q07820 whole entry, one chain of several) above
Mcl-1, sequence (Q07820 whole entry): as the sequence (Q07820 whole entry, one chain of several) above

## CC[C@@]1(O)C(=O)OCc2c1cc1n(c2=O)Cc2cc3ccccc3nc2-1 [CPT, camptothecin]
[1]; CPT 1 μM for 1 hour
  RPA2 foci formation: induced RPA2 foci formation
[2]; CPT 1 μM for 1 hour
  RPA2 phosphorylation at S4 and S8: stimulated RPA2 phosphorylation

## NC(=O)NO [Hu, hydroxyurea]
Mcl-1/Ku complex
  Mcl-1/Ku interaction: increased at 2, 8, and 24 hours
[3]
  induction of Rad51 foci: induced Rad51 foci
H1299 cells [4]; 24-hour time point
  percentage of cells in S phase: enhanced
H1299 cells [4]; short time points (2 and 8 hours)
  percentage of cells in S phase: did not alter
[1]; Hu 0.2 mM for 24 hours
  RPA2 foci formation: induced RPA2 foci formation
[2]; Hu 0.2 mM for 24 hours
  RPA2 phosphorylation at S4 and S8: stimulated RPA2 phosphorylation

## Cc1ccc(C)c(NC(=O)C(=O)C(C(=O)c2ccc3ccccc3c2)C2OC(=O)c3ccccc32)c1 (stereo not shown) [MI-985, N-(2,5-dimethylphenyl)-4-(naphthalen-2-yl)-2,4-dioxo-3-(3-oxo-1,3-dihydroisobenzofuran-1-yl)butanamide]
[5]
  repression of lung cancer in vivo (tumor volume): potently represses lung cancer in vivo

## O=[N+]([O-])c1ccccc1C=NNC(=S)NN=Cc1ccccc1[N+](=O)[O-] [MI-361, N′-(2-nitrobenzylidene)-2-(2-nitrobenzylidene)hydrazine-1-carbothiohydrazide]
[5]
  repression of lung cancer in vivo (tumor volume): potently represses lung cancer in vivo

## O=C1C=CC=CC1=CNNc1nnc(NNC=C2C=CC=CC2=O)c2ccccc12 [MI-647, 6,6′-((phthalazine-1,4-diylbis(hydrazine-2,1-diyl))bis(methanylylidene))bis(cyclohexa-2,4-dien-1-one)]
[5]
  repression of lung cancer in vivo (tumor volume): potently represses lung cancer in vivo

## O=C(c1cc(Cc2n[nH]c(=O)c3ccccc23)ccc1F)N1CCN(C(=O)C2CC2)CC1 [olaparib]
Mcl-1/Ku complex
  Mcl-1/Ku interaction: increased at 2, 8, and 24 hours
[3]
  induction of Rad51 foci: induced Rad51 foci
H1299 cells [4]; time points tested
  percentage of S phase cells: did not significantly affect

## CCOC1=CC=CC(=CNn2c(-c3ccccc3Cl)nc3ccccc3c2=O)C1=O [MI-223, 2-(2-chlorophenyl)-3-(((5-ethoxy-6-oxocyclohexa-2,4-dien-1-ylidene)methyl)amino)quinazolin-4(3H)-one]
WT Mcl-1 protein
  Kd: 161 ± 7 nM
[6]
  binding to ΔBH1 Mcl-1 mutant protein: failed to bind
Mcl-1
  Ki: 193 ± 4.3 nM
Mcl-1/Ku complex; increasing concentrations, 24 hours, co-IP with Mcl-1 antibody
  disruption of Mcl-1/Ku complex: disrupted the Mcl-1/Ku complex
[7]; H1299 DR-GFP cells, dose-dependent
  HR activity: potently inhibited HR activity
[7]; H1299 parental cells, 24 hours
  HR efficacy: dose-dependent reduction of HR efficacy
[8]
  HR activity: potently inhibited HR activity
[9]
  HR efficacy: no significant further effect
[3]; olaparib- or Hu-induced foci, MI-223 4 μM, 24 hours
  inhibition of Rad51 foci formation: strongly inhibited Rad51 foci formation
H1299 lung cancer cells; MI-223 in combination with Hu
  synergy in cell killing (colony formation): synergizes
H1299 lung cancer cells; MI-223 in combination with olaparib
  synergy in cell killing (colony formation): synergizes
H1299 cells [10]
  apoptotic cell death: did not induce significant apoptotic cell death
[5]; MI-223 40 mg/kg/d in combination with Hu 500 mg/kg
  suppression of lung tumor growth: significantly greater efficacy than a single agent alone
[5]; MI-223 40 mg/kg/d in combination with olaparib 40 mg/kg/d, 3 weeks
  suppression of lung tumor growth: significantly greater efficacy than a single agent alone
[5]
  repression of lung cancer in vivo (tumor volume): potently represses lung cancer in vivo
[11]; [13]
  Ki-67 in tumor tissues: significant reduction of Ki-67
  γ-H2AX in tumor tissues: increased levels of γ-H2AX
[11]; [14]
  Ki-67 in tumor tissues: significant reduction of Ki-67
  γ-H2AX in tumor tissues: increased levels of γ-H2AX
[12]; brain, heart, lung, liver, spleen, kidney, and intestine
  histopathologic evaluation of normal tissues: no evidence of normal tissue toxicity
[12]; [15]
  increase in alanine transaminase, aspartate transaminase, or blood urea nitrogen: no significant
  reduction in wbcs, rbcs, hemoglobin, or platelets: no significant
  weight loss: no significant weight loss
